According to ChEMBL document CHEMBL5029185, “Discovery of Novel Polycyclic Heterocyclic Derivatives from Evodiamine for the Potential Treatment of Triple-Negative Breast Cancer” (J Med Chem, 2021):
Calls of active or inactive are those of the source. The calls are words filed in the database; no cut-off is given here.

Experiments:
MDA-MB-231 [1] = assay: Induction of mitochondrial membrane disruption in human MDA-MB-231 cells assessed as mitochondrial dysfunction at 0.4 uM measured after 48 hrs by JC-1 staining based flow cytometry (reference value: 3%); type: functional
MDA-MB-231 [2] = assay: Induction of apoptosis in human MDA-MB-231 cells assessed as decrease in Bcl-2 expression at 0.1 to 0.4 uM measured after 48 hrs by Western blot analysis; type: functional, cell-based; details: dose 0.1-0.4 µM
MDA-MB-231 [3] = assay: Induction cell cycle arrest in human MDA-MB-231 cells assessed as accumulation at G1 phase at 0.4 uM measured after 48 hrs by PI staining based flow cytometry (reference value: 53.7%); type: functional
MDA-MB-231 [4] = assay: Antiproliferative activity against human MDA-MB-231 cells assessed as inhibition rate at 100 uM incubated for 72 hrs by MTT assay; type: functional
Breast carcinoma cell [5] = assay: Antitumour activity against human TNBC breast carcinoma cell tissue xenografted PDTX SCID mouse model assessed as reduction in cancer cell density at 5 to 20 mg/kg treated for 7 days; type: functional, organism-based; details: dose 5-20 mg/kg, time 7.0 day
[6] = Ratio of IC50 for antiproliferative activity against human MDA-MB-231 cells transfected with siRNA-Top1 to IC50 for antiproliferative activity against human MDA-MB-231 cells transfected with siRNA-Ctrl assessed as cell viability by MTT assay; type: functional
[7] = target: T1, DNA topoisomerase 1 (Homo sapiens) (UniProt P11387); assay: Induction of topoisomerase 1-DNA cleavable complex in human MDA-MB-231 cells assessed as decrease in free Top1 in nuclear extract at 30 uM measured up to 9 hrs by Immunoband depletion assay; type: cell-based; details: time hrs <=9
T1 sequence (whole entry): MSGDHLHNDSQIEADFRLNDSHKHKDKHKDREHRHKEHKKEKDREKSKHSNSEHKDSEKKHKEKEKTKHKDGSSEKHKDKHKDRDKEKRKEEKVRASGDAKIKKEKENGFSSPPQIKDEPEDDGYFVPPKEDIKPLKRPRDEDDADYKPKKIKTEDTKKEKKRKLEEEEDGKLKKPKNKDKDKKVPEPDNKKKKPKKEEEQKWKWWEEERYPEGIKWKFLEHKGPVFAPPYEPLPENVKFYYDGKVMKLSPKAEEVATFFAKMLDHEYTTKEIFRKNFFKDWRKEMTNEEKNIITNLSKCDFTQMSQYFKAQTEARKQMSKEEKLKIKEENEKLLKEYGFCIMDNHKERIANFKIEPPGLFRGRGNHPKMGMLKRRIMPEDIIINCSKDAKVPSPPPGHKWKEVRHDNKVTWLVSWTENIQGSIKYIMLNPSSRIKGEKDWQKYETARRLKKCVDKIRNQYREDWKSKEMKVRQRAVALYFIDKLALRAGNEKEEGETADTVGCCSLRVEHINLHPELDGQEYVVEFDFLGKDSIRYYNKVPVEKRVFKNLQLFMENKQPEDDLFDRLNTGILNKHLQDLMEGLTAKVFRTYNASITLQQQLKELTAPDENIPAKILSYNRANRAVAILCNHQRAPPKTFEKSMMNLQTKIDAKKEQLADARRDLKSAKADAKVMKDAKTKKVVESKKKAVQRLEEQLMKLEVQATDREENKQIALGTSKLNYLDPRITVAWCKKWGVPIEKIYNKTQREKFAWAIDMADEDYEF

MDA-MB-231 [8] = assay: Antiproliferative activity against human MDA-MB-231 cells transfected with siRNA-Top1 assessed as cell viability by MTT assay; type: functional, cell-based
MDA-MB-231 [9] = assay: Induction cell cycle arrest in human MDA-MB-231 cells assessed as accumulation at S phase at 0.2 uM measured after 48 hrs by PI staining based flow cytometry (reference value: 36%); type: functional
MDA-MB-231 [10] = assay: Inhibition of PI3K in human MDA-MB-231 cells assessed as Akt phosphorylation at 0.4 uM measured after 48 hrs by Western blot analysis; type: cell-based
MDA-MB-231 [11] = assay: Induction of mitochondrial membrane disruption in human MDA-MB-231 cells assessed as mitochondrial dysfunction at 0.1 uM measured after 48 hrs by JC-1 staining based flow cytometry (reference value: 3%); type: functional
LoVo = assay: Antiproliferative activity against human LoVo cells assessed as inhibition rate incubated for 72 hrs by MTT assay; type: functional, cell-based
HepG2 = assay: Antiproliferative activity against human HepG2 cells assessed as inhibition rate incubated for 72 hrs by MTT assay; type: functional, cell-based; details: HepG2, 72 h
[12] = target: DNA topoisomerase 2-alpha (Homo sapiens) (UniProt P11388); assay: Inhibition of topoisomerase 2 (unknown origin) assessed as relaxation of supercoiled kDNA at 100 to 500 uM incubated for 30 mins by agarose gel electrophoresis; details: dose 100-500 µM
DNA topoisomerase 2-alpha (Homo sapiens), sequence (P11388 whole entry): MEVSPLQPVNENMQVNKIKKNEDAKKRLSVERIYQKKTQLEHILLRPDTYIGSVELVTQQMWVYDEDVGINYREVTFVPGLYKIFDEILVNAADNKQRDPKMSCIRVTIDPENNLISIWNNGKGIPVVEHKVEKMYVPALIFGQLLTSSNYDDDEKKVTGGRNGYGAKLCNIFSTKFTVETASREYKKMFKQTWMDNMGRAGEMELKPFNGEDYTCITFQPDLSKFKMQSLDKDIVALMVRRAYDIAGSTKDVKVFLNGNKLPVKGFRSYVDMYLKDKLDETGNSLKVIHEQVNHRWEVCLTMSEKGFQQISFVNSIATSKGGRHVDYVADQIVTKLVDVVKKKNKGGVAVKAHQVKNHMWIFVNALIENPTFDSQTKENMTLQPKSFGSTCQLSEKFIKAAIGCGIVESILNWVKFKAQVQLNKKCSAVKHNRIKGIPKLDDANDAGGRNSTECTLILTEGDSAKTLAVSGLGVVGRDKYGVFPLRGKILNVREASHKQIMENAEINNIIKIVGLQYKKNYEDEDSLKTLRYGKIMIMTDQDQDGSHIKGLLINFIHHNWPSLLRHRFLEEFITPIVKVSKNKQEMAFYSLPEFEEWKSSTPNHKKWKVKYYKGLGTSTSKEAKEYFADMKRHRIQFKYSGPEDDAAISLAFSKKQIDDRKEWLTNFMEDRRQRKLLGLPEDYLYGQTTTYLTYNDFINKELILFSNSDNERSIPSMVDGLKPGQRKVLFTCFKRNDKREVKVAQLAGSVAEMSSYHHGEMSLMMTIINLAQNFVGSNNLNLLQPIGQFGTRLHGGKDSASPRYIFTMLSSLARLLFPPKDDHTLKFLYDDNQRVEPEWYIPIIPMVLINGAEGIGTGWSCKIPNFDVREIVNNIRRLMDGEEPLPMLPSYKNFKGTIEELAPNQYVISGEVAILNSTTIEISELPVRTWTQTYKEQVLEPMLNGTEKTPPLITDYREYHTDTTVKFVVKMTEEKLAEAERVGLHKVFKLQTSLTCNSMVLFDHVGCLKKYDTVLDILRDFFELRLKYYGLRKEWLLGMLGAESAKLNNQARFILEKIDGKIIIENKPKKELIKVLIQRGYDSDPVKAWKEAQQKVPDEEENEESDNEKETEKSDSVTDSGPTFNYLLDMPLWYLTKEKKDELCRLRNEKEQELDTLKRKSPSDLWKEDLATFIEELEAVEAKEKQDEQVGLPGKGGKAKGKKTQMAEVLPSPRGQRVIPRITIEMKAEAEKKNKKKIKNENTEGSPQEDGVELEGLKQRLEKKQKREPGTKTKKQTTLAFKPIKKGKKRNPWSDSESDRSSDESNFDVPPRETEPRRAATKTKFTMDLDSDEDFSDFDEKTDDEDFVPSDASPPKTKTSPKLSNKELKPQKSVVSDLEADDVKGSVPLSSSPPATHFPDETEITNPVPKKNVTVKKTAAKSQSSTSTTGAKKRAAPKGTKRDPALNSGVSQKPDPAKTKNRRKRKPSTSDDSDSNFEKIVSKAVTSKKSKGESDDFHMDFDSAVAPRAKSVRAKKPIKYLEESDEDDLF

MDA-MB-231 [13] = assay: Induction cell cycle arrest in human MDA-MB-231 cells assessed as accumulation at G2 phase at 0.2 uM measured after 48 hrs by PI staining based flow cytometry (reference value: 10.2%); type: functional
MDA-MB-231 [14] = assay: Induction of apoptosis in human MDA-MB-231 cells assessed as increase in cleaved PARP level at 0.4 uM incubated for 48 hrs by Western blot analysis; type: functional, cell-based
H22 = assay: Antiproliferative activity against mouse H22 cells assessed as inhibition rate incubated for 72 hrs by MTT assay; type: functional, cell-based; details: H22, 72 h
MDA-MB-231 [15] = assay: Effect on Akt expression in human MDA-MB-231 cells at 0.4 uM measured after 48 hrs by Western blot analysis; type: functional, cell-based
HCT-116 = assay: Antiproliferative activity against human HCT-116 cells assessed as inhibition rate incubated for 72 hrs by MTT assay; type: functional, cell-based; details: HCT-116, 72 h
Breast carcinoma cell [16] = assay: Antitumour activity against human TNBC breast carcinoma cell tissue xenografted PDTX SCID mouse model assessed as reduction in Ki67 expression level at 5 to 20 mg/kg treated for 7 days by immunohistochemical analysis; type: functional, organism-based; details: dose 5-20 mg/kg, time 7.0 day
MDA-MB-231 [17] = assay: Induction of mitochondrial membrane disruption in human MDA-MB-231 cells assessed as mitochondrial dysfunction at 0.2 uM measured after 48 hrs by JC-1 staining based flow cytometry (reference value: 3%); type: functional
MDA-MB-231 [18] = assay: Induction cell cycle arrest in human MDA-MB-231 cells assessed as accumulation at S phase at 0.1 uM measured after 48 hrs by PI staining based flow cytometry (reference value: 36%); type: functional
MDA-MB-231 [19] = assay: Induction of apoptosis in human MDA-MB-231 cells assessed as increase in Bax expression at 0.1 to 0.4 uM measured after 48 hrs by Western blot analysis; type: functional, cell-based; details: dose 0.1-0.4 µM
Breast carcinoma cell [20] = assay: Antitumour activity against human TNBC breast carcinoma cell tissue xenografted PDTX SCID mouse model assessed as tumor cell necrosis […] at 5 to 20 mg/kg treated for 7 days; type: functional, organism-based; details: dose 5-20 mg/kg, time 7.0 day
MDA-MB-231 [21] = assay: Antiproliferative activity against human MDA-MB-231 cells assessed as inhibition rate at 1 uM incubated for 72 hrs by MTT assay; type: functional
HEK293 = assay: cells; type: ADME, cell-based; details: Homo sapiens, HEK293, 72 h
Description: Antiproliferative activity against HEK293 cells assessed as inhibition rate incubated for 72 hrs by MTT assay

MDA-MB-231 [22] = assay: Induction of apoptosis in human MDA-MB-231 cells assessed as changes in cell morphology and nuclei at 0.1 to 0.4 uM by Hoechst 33342 staining based fluorescence microscopy; type: functional; details: dose 0.1-0.4 µM

Question: For `O=C1c2cc(Cl)ccc2OC2c3oc4ccc(O)cc4c3CCN12` (configuration not stated), which Activity (MDA-MB-231 [1]) is on record?
Answer: 25%

Question: And the Activity (MDA-MB-231 [2])?
Answer: Active

Question: And the Activity (MDA-MB-231 [3])?
Answer: 70.2%

Question: And the inhibition at 100 µM (MDA-MB-231 [4])?
Answer: 95.8%

Question: What about the Activity (Breast carcinoma cell [5]) of the same compound?
Answer: Active

Question: And the “Ratio IC50” value [6]?
Answer: 12.7

Question: What about the Activity [7] of the same compound?
Answer: Active

Question: And the IC50 (MDA-MB-231 [8])?
Answer: 9.7 µM

Question: And the Activity (MDA-MB-231 [9])?
Answer: 22.4%

Question: And the inhibition (MDA-MB-231 [10])?
Answer: Active

Question: And the Activity (MDA-MB-231 [11])?
Answer: 12.2%

Question: And the IC50 (LoVo)?
Answer: 7.31 µM

Question: What about the IC50 (HepG2) of the same compound?
Answer: 4.65 µM

Question: What about the inhibition [12] of the same compound?
Answer: inactive

Question: What about the Activity (MDA-MB-231 [13]) of the same compound?
Answer: 5.3%

Question: And the Activity (MDA-MB-231 [14])?
Answer: Active

Question: What about the IC50 (H22) of the same compound?
Answer: 1.02 µM

Question: What about the Activity (MDA-MB-231 [15]) of the same compound?
Answer: inactive

Question: And the IC50 (HCT-116)?
Answer: 0.76 µM

Question: And the Activity (Breast carcinoma cell [16])?
Answer: Active

Question: And the Activity (MDA-MB-231 [17])?
Answer: 18.5%

Question: And the Activity (MDA-MB-231 [18])?
Answer: 24.7%

Question: What about the Activity (MDA-MB-231 [19]) of the same compound?
Answer: Active

Question: What about the Activity (Breast carcinoma cell [20]) of the same compound?
Answer: Active

Question: What about the inhibition at 1 µM (MDA-MB-231 [21]) of the same compound?
Answer: 82.4%

Question: And the IC50 (HEK293)?
Answer: 35.5 µM

Question: What about the Activity (MDA-MB-231 [22]) of the same compound?
Answer: Active
